Source: ChEMBL document CHEMBL1201862, “PubChem BioAssay data set” (2004)
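48-hour exposure; five concentrations; linearly interpolated endpoints. Abbreviation: GI50, concentration required for 50% inhibition of growth.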 Activity calls are given as the source filed them. Cut-off read from the data, not from the text of the source: active = GI50 up to about 1.1 µM and inactive = higher.

Columns and labels:
Test in all cases: DTP human tumour cell line panel, 48 h
CAKI-1 = system: CAKI-1
HCC 2998 = system: HCC 2998
HCT-116 = system: HCT-116
HT-29 = system: HT-29
IGROV-1 = system: IGROV-1
KM12 = system: KM12
LOX IMVI = system: LOX IMVI
M14 = system: M14
MDA-N = system: MDA-N
NCI-H226 = system: NCI-H226
NCI-H460 = system: NCI-H460
NCI-H522 = system: NCI-H522
OVCAR-4 = system: OVCAR-4
OVCAR-5 = system: OVCAR-5
OVCAR-8 = system: OVCAR-8
SF-268 = system: SF-268
SK-MEL-28 = system: SK-MEL-28
SK-OV-3 = system: SK-OV-3
U-251 = system: U-251
UO-31 = system: UO-31

Measured: GI50

c1ccc(C2=NCCN2)c(C2=NCCN2)c1
inactive: CAKI-1 > 100 µM | HCC 2998 57.3 µM | HCT-116 > 100 µM | HT-29 > 100 µM | IGROV-1 > 100 µM | KM12 > 100 µM | LOX IMVI > 100 µM | M14 > 100 µM | MDA-N > 100 µM | NCI-H226 > 100 µM | NCI-H460 > 100 µM | NCI-H522 > 100 µM | OVCAR-4 > 100 µM | OVCAR-5 > 100 µM | OVCAR-8 > 100 µM | SF-268 > 100 µM | SK-MEL-28 > 100 µM | SK-OV-3 > 100 µM | U-251 > 100 µM | UO-31 > 100 µM

O=C(CCBr)N1CCN(C(=O)CCBr)CC1 [PIPOBROMAN]
inactive: CAKI-1 47.9 µM | HCC 2998 69.3 µM | HCT-116 71.3 µM | HT-29 103 µM | IGROV-1 97.5 µM | KM12 > 93.5 µM | LOX IMVI 48.3 µM | M14 57.7 µM | MDA-N 89.9 µM | NCI-H226 84.9 µM | NCI-H460 11.9 µM | NCI-H522 63.2 µM | OVCAR-4 86.9 µM | OVCAR-5 103 µM | OVCAR-8 86.3 µM | SF-268 39.3 µM | SK-MEL-28 99.8 µM | SK-OV-3 105 µM | U-251 55 µM | UO-31 120 µM
